Values of other authors, collected in patent US20090311335A1, “COMBINATION OF A TRIPTAN AND AN NSAID” (priority 2008, published 2009).

Key:
[1] = single intravenous dose, range 5 to 60 mg
[2] = oral 75 mg or 150 mg, dual-release formulation

SMILES | solubility in methanol (methanol) | solubility in strong acids and bases (strong acids and bases) | solubility in water (water) | dose proportionality of pharmacokinetics [1] | efficacy and tolerability in acute treatment of migraine attacks [2]
Cc1cnc(NC(=O)C2=C(O)c3ccccc3S(=O)(=O)N2C)s1 [Meloxicam, 4-hydroxy-2-methyl-N-(5-methyl-2-thiazolyl-)-2-H-1,2-benzothiazine-3-carboxamide 1,1-dioxide] | very slightly soluble | higher solubility | practically insoluble | dose-proportional | 
CC(C(=O)O)c1cccc(C(=O)c2ccccc2)c1 (centres unmarked) [ketoprofen] |  |  |  |  | effective and well-tolerated
